Laboratory results: ChEMBL document CHEMBL1909046, “DrugMatrix in vitro pharmacology data”

Assays:
Adenosine receptor A1 = biological target: T1, Adenosine receptor A1 (Homo sapiens, UniProt P30542); format: cell membranes, CHO, Membrane; settings: cho;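 also: radioligand binding assay at the adenosine A1 receptor, with DPCPX serving as the labelled ligand; in other assays of this panel Not Active means under 50% inhibition at 10 µM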
T1 sequence (P30542 whole entry): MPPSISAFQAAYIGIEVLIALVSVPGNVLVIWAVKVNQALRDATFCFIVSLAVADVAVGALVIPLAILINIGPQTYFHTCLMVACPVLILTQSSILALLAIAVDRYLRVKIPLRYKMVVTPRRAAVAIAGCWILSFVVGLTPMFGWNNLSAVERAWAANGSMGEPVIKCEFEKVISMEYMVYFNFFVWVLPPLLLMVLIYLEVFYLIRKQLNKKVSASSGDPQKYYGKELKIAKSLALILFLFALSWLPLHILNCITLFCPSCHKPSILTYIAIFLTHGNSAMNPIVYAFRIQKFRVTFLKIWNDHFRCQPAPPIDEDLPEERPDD

[1] = DRUGMATRIX: Serotonin (5-Hydroxytryptamine) 5-HT3 radioligand binding (ligand: [3H] GR-65630); format: cell membranes, Membrane; settings: hek293; Not Active = under 50% inhibition at 10 µM
[2] = biological target: T2, Vasoactive intestinal polypeptide receptor 1 (Homo sapiens, UniProt P32241); format: cell membranes, Membrane; settings: ht-29; also: in other assays of this panel Not Active means under 50% inhibition at 10 µM
T2 sequence (P32241 whole entry): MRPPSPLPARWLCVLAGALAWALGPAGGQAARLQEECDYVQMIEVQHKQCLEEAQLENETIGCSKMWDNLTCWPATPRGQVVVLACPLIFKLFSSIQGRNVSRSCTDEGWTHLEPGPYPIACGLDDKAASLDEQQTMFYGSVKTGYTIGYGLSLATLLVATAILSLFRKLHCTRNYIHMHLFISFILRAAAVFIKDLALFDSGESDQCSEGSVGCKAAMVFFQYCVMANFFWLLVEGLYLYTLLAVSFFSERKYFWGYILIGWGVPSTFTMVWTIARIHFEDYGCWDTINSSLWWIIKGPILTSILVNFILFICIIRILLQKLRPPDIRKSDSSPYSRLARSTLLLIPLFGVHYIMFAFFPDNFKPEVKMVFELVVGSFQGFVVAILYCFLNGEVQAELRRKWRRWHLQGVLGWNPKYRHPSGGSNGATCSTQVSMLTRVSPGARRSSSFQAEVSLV

[3] = DRUGMATRIX: Imidazoline I2, Central radioligand binding (ligand: [3H] Idazoxan); format: cell membranes, Rattus norvegicus, Wistar, Cerebral cortex, Membrane; settings: Not Active = under 50% inhibition at 10 µM
Adenosine receptor A2a = Adenosine receptor A2a (Homo sapiens, UniProt P29274); test: DRUGMATRIX: Adenosine A2A radioligand binding (ligand: […]); format: cell membranes, HEK293, Membrane; settings: hek293; Not Active = under 50% inhibition at 10 µM
[4] = biological target: Matrix metalloproteinase-9 (Homo sapiens, UniProt P14780); format: cell-based;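 also: inhibition of isolated MMP-9 enzyme activity toward a synthetic peptide substrate, from the DrugMatrix protease screening panel; in other assays of this panel Not Active means under 50% inhibition at 10 µM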
[5] = DRUGMATRIX: Phosphodiesterase PDE4 enzyme inhibition (substrate: [3H]cAMP + cAMP); settings: u-937, Not Active = under 50% inhibition at 10 µM

Matrix metalloproteinase-9, sequence (P14780 whole entry): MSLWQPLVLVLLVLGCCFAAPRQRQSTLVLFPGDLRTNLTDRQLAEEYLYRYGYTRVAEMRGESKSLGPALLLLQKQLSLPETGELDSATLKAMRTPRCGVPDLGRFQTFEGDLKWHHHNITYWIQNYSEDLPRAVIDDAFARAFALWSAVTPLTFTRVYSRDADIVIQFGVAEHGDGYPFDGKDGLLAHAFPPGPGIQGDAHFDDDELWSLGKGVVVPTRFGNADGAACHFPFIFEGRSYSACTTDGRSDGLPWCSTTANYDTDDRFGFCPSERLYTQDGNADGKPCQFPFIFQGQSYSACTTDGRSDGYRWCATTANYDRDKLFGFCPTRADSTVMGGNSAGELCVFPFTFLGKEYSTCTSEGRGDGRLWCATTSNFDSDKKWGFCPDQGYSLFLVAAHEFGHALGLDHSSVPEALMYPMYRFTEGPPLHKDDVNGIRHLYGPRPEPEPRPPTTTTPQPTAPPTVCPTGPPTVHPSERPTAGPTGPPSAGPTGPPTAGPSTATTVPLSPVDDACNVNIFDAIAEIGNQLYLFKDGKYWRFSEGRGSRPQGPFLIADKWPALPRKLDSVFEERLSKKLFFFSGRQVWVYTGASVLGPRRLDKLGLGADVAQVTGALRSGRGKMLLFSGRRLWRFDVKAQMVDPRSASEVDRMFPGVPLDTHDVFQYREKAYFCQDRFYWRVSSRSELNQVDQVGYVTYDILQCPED
Adenosine receptor A2a, sequence (P29274 whole entry): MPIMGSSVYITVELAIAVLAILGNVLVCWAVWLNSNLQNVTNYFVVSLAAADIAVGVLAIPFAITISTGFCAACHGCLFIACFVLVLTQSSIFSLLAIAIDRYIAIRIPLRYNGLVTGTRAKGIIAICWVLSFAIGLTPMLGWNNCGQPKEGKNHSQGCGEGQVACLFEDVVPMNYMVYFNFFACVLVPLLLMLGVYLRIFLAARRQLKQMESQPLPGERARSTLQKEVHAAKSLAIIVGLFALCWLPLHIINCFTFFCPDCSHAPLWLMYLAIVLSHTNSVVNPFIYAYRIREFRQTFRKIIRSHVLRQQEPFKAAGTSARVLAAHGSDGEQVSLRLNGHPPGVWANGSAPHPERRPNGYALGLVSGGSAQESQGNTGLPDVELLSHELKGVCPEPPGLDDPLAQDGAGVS

CCOc1cc(N)c(Cl)cc1C(=O)NCC1CN(Cc2ccc(F)cc2)CCO1 (stereo not drawn) [MOSAPRIDE]
Not Active: IC50 (Adenosine receptor A1) | IC50 [1] | Ki [1] | IC50 [2] | IC50 [3] | Ki [3] | IC50 (Adenosine receptor A2a) | IC50 [4] | IC50 [5] | Ki [5]

O=C(c1ccccc1)c1ccc2n1CCC2C(=O)O (stereo not drawn) [KETOROLAC]
Not Active: IC50 (Adenosine receptor A1) | IC50 [1] | Ki [1] | IC50 [2] | IC50 [3] | Ki [3] | IC50 (Adenosine receptor A2a) | IC50 [4] | IC50 [5] | Ki [5]

Nc1nc(N)c2nc(-c3ccccc3)c(N)nc2n1
Not Active: IC50 (Adenosine receptor A1) | IC50 [1] | Ki [1] | IC50 [2] | IC50 [3] | Ki [3] | IC50 (Adenosine receptor A2a) | IC50 [4] | IC50 [5] | Ki [5]

Oc1ccc(/C=C/c2cc(O)cc(O)c2)cc1 [RESVERATROL]
Not Active: IC50 (Adenosine receptor A1) | IC50 [1] | Ki [1] | IC50 [2] | IC50 [3] | Ki [3] | IC50 (Adenosine receptor A2a) | IC50 [4] | IC50 [5] | Ki [5]

Cc1ccnc(NS(=O)(=O)c2ccc(N)cc2)n1 [SULFAMERAZINE]
Not Active: IC50 (Adenosine receptor A1) | IC50 [1] | Ki [1] | IC50 [2] | IC50 [3] | Ki [3] | IC50 (Adenosine receptor A2a) | IC50 [4] | IC50 [5] | Ki [5]

CCN1CCCC1CNC(=O)c1cc(S(N)(=O)=O)ccc1OC (stereo not drawn) [SULPIRIDE]
Not Active: IC50 (Adenosine receptor A1) | IC50 [1] | Ki [1] | IC50 [2] | IC50 [3] | Ki [3] | IC50 (Adenosine receptor A2a) | IC50 [4] | IC50 [5] | Ki [5]

O=C1CC[C@@]2(O)[C@H]3Cc4ccc(O)c5c4[C@@]2(CCN3CC2CC2)[C@H]1O5 [NALTREXONE]
Not Active: IC50 (Adenosine receptor A1) | IC50 [1] | Ki [1] | IC50 [2] | IC50 [3] | Ki [3] | IC50 (Adenosine receptor A2a) | IC50 [4] | IC50 [5] | Ki [5]

CCN(CC)C(=S)SSC(=S)N(CC)CC
Not Active: IC50 (Adenosine receptor A1) | IC50 [1] | Ki [1] | IC50 [2] | IC50 [3] | Ki [3] | IC50 (Adenosine receptor A2a) | IC50 [4]
4.8 µM: IC50 ([5]; read-out: IC50)

O=C(OC[C@H]1O[C@@H](OC(=O)c2cc(O)c(O)c(OC(=O)c3cc(O)c(O)c(O)c3)c2)[C@H](OC(=O)c2cc(O)c(O)c(OC(=O)c3cc(O)c(O)c(O)c3)c2)[C@@H](OC(=O)c2cc(O)c(O)c(OC(=O)c3cc(O)c(O)c(O)c3)c2)[C@@H]1OC(=O)c1cc(O)c(O)c(OC(=O)c2cc(O)c(O)c(O)c2)c1)c1cc(O)c(O)c(OC(=O)c2cc(O)c(O)c(O)c2)c1 [TANNIC ACID]
Not Active: IC50 (Adenosine receptor A1) | IC50 [1] | Ki [1] | IC50 [2] | IC50 [3] | Ki [3] | IC50 (Adenosine receptor A2a) | IC50 [4]
1.04 µM: IC50 ([5]; read-out: IC50)

C=CCc1ccc2c(c1)OCO2 [SAFROLE]
Not Active: IC50 (Adenosine receptor A1) | IC50 [1] | Ki [1] | IC50 [2] | IC50 [3] | Ki [3] | IC50 (Adenosine receptor A2a) | IC50 [4] | IC50 [5] | Ki [5]

C#C[C@]1(O)CC[C@H]2[C@@H]3[C@H](C)CC4=C(CCC(=O)C4)[C@H]3CC[C@@]21C [TIBOLONE]
Not Active: IC50 (Adenosine receptor A1) | IC50 [1] | Ki [1] | IC50 [2] | IC50 [3] | Ki [3] | IC50 (Adenosine receptor A2a) | IC50 [4] | IC50 [5] | Ki [5]

CC[C@@]1(O)C(=O)OCc2c1cc1n(c2=O)Cc2cc3c(CN(C)C)c(O)ccc3nc2-1 [TOPOTECAN]
Not Active: IC50 (Adenosine receptor A1) | IC50 [1] | Ki [1] | IC50 [2] | IC50 [3] | Ki [3] | IC50 (Adenosine receptor A2a) | IC50 [4] | IC50 [5] | Ki [5]

CC1(C)[C@H](C(=O)O)N2C(=O)C[C@H]2S1(=O)=O [SULBACTAM]
Not Active: IC50 (Adenosine receptor A1) | IC50 [1] | Ki [1] | IC50 [2] | IC50 [3] | Ki [3] | IC50 (Adenosine receptor A2a) | IC50 [4] | IC50 [5] | Ki [5]
